Where “and” joins values, the source holds several entries; their conditions need not be identical. Identical values can stand only once. Inconclusive results and toxic doses are left out.
Tested on: B6C3F1 mice, B16 melanoma ip, median survival T/C
Assay: NCI In Vivo Anticancer Drug Screen. Data for tumor model B16 Melanoma (intraperitoneal) in B6C3F1 mice
Conditions: endpoint: median survival time, higher = longer survival
Procedure, shortened: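 Values are T/C ratios: the measurement in treated animals divided by that in vehicle-treated controls, using survival or tumor size in mice carrying transplantable tumors.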

[1] = dose: 12.5 mg/kg/injection, schedule: Q01DX009 (ip), vehicle: saline with Tween-80
[2] = dose: 25.0 mg/kg/injection, schedule: Q01DX009 (ip), vehicle: Klucel (hydroxypropylcellulose) (HPC)
[3] = dose: 25.0 mg/kg/injection, schedule: Q01DX009 (ip), vehicle: saline with Tween-80
[4] = dose: 50.0 mg/kg/injection, schedule: Q01DX009 (ip), vehicle: Klucel (hydroxypropylcellulose) (HPC)
[5] = dose: 50.0 mg/kg/injection, schedule: Q01DX009 (ip), vehicle: saline with Tween-80
[6] = dose: 100.0 mg/kg/injection, schedule: Q01DX009 (ip), vehicle: saline with Tween-80
[7] = dose: 200.0 mg/kg/injection, schedule: Q01DX009 (ip), vehicle: Klucel (hydroxypropylcellulose) (HPC)
[8] = dose: 200.0 mg/kg/injection, schedule: Q01DX009 (ip), vehicle: saline with Tween-80
[9] = dose: 400.0 mg/kg/injection, schedule: Q01DX009 (ip), vehicle: Klucel (hydroxypropylcellulose) (HPC)
[10] = dose: 2.0 mg/kg/injection, schedule: Q01DX009 (ip), vehicle: saline
[11] = dose: 4.0 mg/kg/injection, schedule: Q01DX009 (ip), vehicle: saline
[12] = dose: 6.25 mg/kg/injection, schedule: Q01DX009 (ip), vehicle: Klucel (hydroxypropylcellulose) (HPC)
[13] = dose: 12.5 mg/kg/injection, schedule: Q01DX009 (ip), vehicle: Klucel (hydroxypropylcellulose) (HPC)
[14] = dose: 100.0 mg/kg/injection, schedule: Q01DX009 (ip), vehicle: Klucel (hydroxypropylcellulose) (HPC)
[15] = dose: 100.0 mg/kg/injection, schedule: Q01DX009 (ip), vehicle: saline
[16] = dose: 200.0 mg/kg/injection, schedule: Q01DX009 (ip), vehicle: saline
[17] = dose: 400.0 mg/kg/injection, schedule: Q01DX009 (ip), vehicle: saline with Tween-80
[18] = dose: 400.0 mg/kg/injection, schedule: Q01DX009 (ip), vehicle: saline

O=Cc1ccccc1
T/C [1]: 101 % of control | T/C [2]: 100 % of control | T/C [3]: 99 % of control | T/C [4]: 105 % of control | T/C [5]: 98 % of control | T/C (dose: 50.0 mg/kg/injection, schedule: Q01DX009 (oral), vehicle: Klucel (hydroxypropylcellulose) (HPC)): 95 % of control | T/C [6]: 98 % of control | T/C (dose: 100.0 mg/kg/injection, schedule: Q01DX009 (oral), vehicle: Klucel (hydroxypropylcellulose) (HPC)): 88 % of control | T/C [7]: 86 % of control | T/C [8]: 89 % of control | T/C (dose: 200.0 mg/kg/injection, schedule: Q01DX009 (oral), vehicle: Klucel (hydroxypropylcellulose) (HPC)): 98 % of control | T/C [9]: 92 % of control | T/C (dose: 400.0 mg/kg/injection, schedule: Q01DX009 (oral), vehicle: Klucel (hydroxypropylcellulose) (HPC)): 105 % of control

Nc1ncnc2c1ncn2C1C=C(CO)C(O)C1O (centres undefined)
T/C (dose: 0.5 mg/kg/injection, schedule: Q01DX009 (ip), vehicle: saline): 97 % of control and 106 % of control | T/C (dose: 1.0 mg/kg/injection, schedule: Q01DX009 (ip), vehicle: saline): 99 % of control and 103 % of control | T/C [10]: 102 % of control and 103 % of control | T/C [11]: 110 % of control and 105 % of control

O=CC(O)C(O)C(O)C(O)CO (centres undefined)
T/C (dose: 75.0 mg/kg/injection, schedule: Q01DX009 (ip), vehicle: saline): 95 % of control | T/C (dose: 150.0 mg/kg/injection, schedule: Q01DX009 (ip), vehicle: saline): 102 % of control | T/C (dose: 300.0 mg/kg/injection, schedule: Q01DX009 (ip), vehicle: saline): 103 % of control | T/C (dose: 600.0 mg/kg/injection, schedule: Q01DX009 (ip), vehicle: saline): 87 % of control | T/C (dose: 1200.0 mg/kg/injection, schedule: Q01DX009 (ip), vehicle: saline): 96 % of control

[Cl][Pt+2][Cl].[NH-]c1ccc(C(=O)c2ccccc2)cc1[NH-]
T/C (dose: 20.0 mg/kg/injection, schedule: Q01DX009 (ip), vehicle: saline with Tween-80): 109 % of control and 107 % of control | T/C (dose: 40.0 mg/kg/injection, schedule: Q01DX009 (ip), vehicle: saline with Tween-80): 114 % of control and 116 % of control | T/C (dose: 80.0 mg/kg/injection, schedule: Q01DX009 (ip), vehicle: saline with Tween-80): 112 % of control and 115 % of control | T/C (dose: 160.0 mg/kg/injection, schedule: Q01DX009 (ip), vehicle: saline with Tween-80): 116 % of control | T/C (dose: 320.0 mg/kg/injection, schedule: Q01DX009 (ip), vehicle: saline with Tween-80): 110 % of control and 121 % of control

CN1CCc2c(c3ccccc3c3ccccc23)C1
T/C (dose: 3.12 mg/kg/injection, schedule: Q01DX009 (ip), vehicle: Klucel (hydroxypropylcellulose) (HPC)): 116 % of control and 94 % of control | T/C [12]: 87 % of control and 99 % of control | T/C [13]: 88 % of control and 102 % of control and 106 % of control | T/C [2]: 90 % of control and 102 % of control | T/C [4]: 116 % of control and 97 % of control and 102 % of control | T/C [14]: 118 % of control and 92 % of control

[Cl][Mn][Cl]
T/C [10]: 115 % of control and 107 % of control | T/C [11]: 96 % of control and 103 % of control and 106 % of control | T/C (dose: 8.0 mg/kg/injection, schedule: Q01DX009 (ip), vehicle: saline): 112 % of control and 98 % of control | T/C (dose: 16.0 mg/kg/injection, schedule: Q01DX009 (ip), vehicle: saline): 104 % of control | T/C (dose: 32.0 mg/kg/injection, schedule: Q01DX009 (ip), vehicle: saline): 155 % of control | T/C (dose: 64.0 mg/kg/injection, schedule: Q01DX009 (ip), vehicle: saline): 152 % of control and 160 % of control

CCCCCC1c2cc(O)ccc2OC1N1CCOCC1 (centres undefined)
T/C (dose: 6.0 mg/kg/injection, schedule: Q01DX009 (ip), vehicle: saline with Tween-80): 90 % of control | T/C (dose: 12.0 mg/kg/injection, schedule: Q01DX009 (ip), vehicle: saline with Tween-80): 103 % of control | T/C [1]: 106 % of control | T/C [3]: 96 % of control and 107 % of control | T/C [5]: 98 % of control and 102 % of control | T/C [6]: 94 % of control and 106 % of control | T/C [8]: 96 % of control and 97 % of control

COc1cccc2c1C(=O)c1c(O)c3c(c(O)c1C2=O)C[C@@](O)(C(=O)CO)C[C@@H]3OC1CC(OC(C)=O)C(OC(C)=O)C(C)O1 (some centres undefined)
T/C (dose: 6.25 mg/kg/injection, schedule: Q01DX009 (ip), vehicle: distilled water + Tween-80): 178 % of control | T/C (dose: 12.5 mg/kg/injection, schedule: Q01DX001 (ip), vehicle: distilled water + Tween-80): 150 % of control | T/C (dose: 25.0 mg/kg/injection, schedule: Q01DX001 (ip), vehicle: distilled water + Tween-80): 159 % of control and 195 % of control | T/C (dose: 50.0 mg/kg/injection, schedule: Q01DX001 (ip), vehicle: distilled water + Tween-80): 176 % of control and 202 % of control

NC(Cc1ccc(O)c(Cl)c1)C(=O)O (centres undefined)
T/C [15]: 93 % of control | T/C [16]: 98 % of control

NC(=S)N/N=C\c1ncccc1OCc1cccc(N)c1
T/C (dose: 12.5 mg/kg/injection, schedule: Q01DX009 (ip), vehicle: distilled water + Tween-80): 86 % of control | T/C [1]: 103 % of control | T/C (dose: 25.0 mg/kg/injection, schedule: Q01DX009 (ip), vehicle: distilled water + Tween-80): 100 % of control | T/C [3]: 109 % of control and 113 % of control and 106 % of control | T/C (dose: 50.0 mg/kg/injection, schedule: Q01DX009 (ip), vehicle: distilled water + Tween-80): 114 % of control | T/C (dose: 100.0 mg/kg/injection, schedule: Q01DX009 (ip), vehicle: distilled water + Tween-80): 108 % of control | T/C (dose: 200.0 mg/kg/injection, schedule: Q01DX009 (ip), vehicle: distilled water + Tween-80): 118 % of control | T/C (dose: 400.0 mg/kg/injection, schedule: Q01DX009 (ip), vehicle: distilled water + Tween-80): 99 % of control | T/C [17]: 113 % of control and 121 % of control

CC(=O)Nc1ccc(C(=O)C=O)cc1
T/C (dose: 6.25 mg/kg/injection, schedule: Q01DX009 (ip), vehicle: saline with Tween-80): 101 % of control and 103 % of control | T/C [1]: 116 % of control and 106 % of control | T/C [3]: 112 % of control and 101 % of control | T/C [5]: 112 % of control and 115 % of control | T/C [6]: 102 % of control and 103 % of control

N=C(N)c1ccc(N=Nc2c(O)ccc3cc(O)ccc23)cc1
T/C (dose: 0.19 mg/kg/injection, schedule: Q01DX009 (ip), vehicle: Klucel (hydroxypropylcellulose) (HPC)): 114 % of control | T/C (dose: 0.39 mg/kg/injection, schedule: Q01DX009 (ip), vehicle: Klucel (hydroxypropylcellulose) (HPC)): 99 % of control | T/C (dose: 0.78 mg/kg/injection, schedule: Q01DX009 (ip), vehicle: Klucel (hydroxypropylcellulose) (HPC)): 92 % of control | T/C (dose: 1.56 mg/kg/injection, schedule: Q01DX009 (ip), vehicle: Klucel (hydroxypropylcellulose) (HPC)): 92 % of control | T/C [12]: 97 % of control | T/C [13]: 97 % of control | T/C [2]: 87 % of control | T/C [4]: 89 % of control

CCOC(=O)N1CCN(CCCCCOc2ccccc2C2CCCCC2)CC1
T/C [1]: 108 % of control | T/C [3]: 96 % of control | T/C [5]: 87 % of control

CN1c2c(nc(N)[nH]c2=O)NCC1CCNc1ccc(C(=O)NC(CCC(=O)O)C(=O)O)cc1 (centres undefined)
T/C (dose: 50.0 mg/kg/injection, schedule: Q01DX009 (ip), vehicle: sodium bicarbonate): 105 % of control | T/C (dose: 100.0 mg/kg/injection, schedule: Q01DX009 (ip), vehicle: sodium bicarbonate): 114 % of control

CNc1c(NC)n(C)c(=O)n(C)c1=O
T/C [15]: 92 % of control | T/C [16]: 100 % of control | T/C [18]: 96 % of control

Cc1ccc2c(c1)n([O-])c1cc(Cl)ccc1[n+]2=O
T/C [1]: 105 % of control | T/C [3]: 101 % of control | T/C [5]: 122 % of control | T/C [8]: 111 % of control

COC(=O)c1ccc(O)cc1
T/C [1]: 92 % of control | T/C [3]: 103 % of control | T/C [5]: 106 % of control | T/C [6]: 117 % of control | T/C [8]: 101 % of control | T/C [17]: 96 % of control

NC(CS)C(=O)O (centres undefined)
T/C (dose: 50.0 mg/kg/injection, schedule: Q01DX009 (ip), vehicle: saline): 93 % of control and 104 % of control | T/C [6]: 107 % of control | T/C [15]: 93 % of control and 103 % of control | T/C [8]: 109 % of control | T/C [16]: 93 % of control | T/C [17]: 107 % of control | T/C [18]: 116 % of control and 92 % of control | T/C (dose: 800.0 mg/kg/injection, schedule: Q01DX009 (ip), vehicle: saline with Tween-80): 100 % of control

COc1ccc(C(C)c2cc3c(cc2OC)OCO3)cc1 (centres undefined)
T/C [3]: 99 % of control | T/C [5]: 99 % of control | T/C [6]: 100 % of control | T/C [8]: 104 % of control

Clc1ccc(C2SC=Cc3ccccc32)cc1 (centres undefined)
T/C [2]: 114 % of control | T/C [4]: 114 % of control | T/C [14]: 118 % of control | T/C [7]: 112 % of control | T/C [9]: 103 % of control

From PubChem BioAssay AID200 (DTP/NCI, 2004)
